These are literature values, as cited in patent US7550154B2, “Methods of treatment with drug loaded polymeric materials” (Yale University, priority 2004, dated 2009).

Regarding `COc1cccc2c1C(=O)c1c(O)c3c(c(O)c1C2=O)C[C@@](O)(C(=O)CO)C[C@@H]3O[C@H]1C[C@H](N)[C@H](O)[C@H](C)O1` [Dox, doxorubicin], the “solubility in aqueous environments” value was “limited solubility”.
